One series can be described thus: in vitro. Conditions: human.
Series [1] has as its system SARS-CoV-2. In words: Viral RNA by qRT-PCR in culture medium of human lung A549 cells. In kind it is cell-based. On the technique in general: Quantitative PCR measures a nucleic acid by following its amplification.
Series [2] relates to SARS-CoV-2. Conditions: Vero E6 cells; famotidine 0.32–200 µM; remdesivir 0.1–62.5 µM.
The test system of series [3] is SARS-CoV-2. In words: Antiviral assay in human lung A549 cells (ACE2, TMPRSS2), immunofluorescence of nucleocapsid protein. In kind it is cell-based. Particulars: human lung A549 cells expressing ACE2 and TMPRSS2.
Series [4] has as its system SARS-CoV-2. In words: Antiviral assay in Vero E6 cells, immunofluorescence of nucleocapsid protein. In kind it is cell-based. Particulars: 72 h post infection; for IC50: immunofluorescence, MOI 0.1, read-out: IC50, inhibition of SARS-CoV-2 replication.
Series [5] relates to SARS-CoV-2. In words: Viral RNA by qRT-PCR in culture medium of Vero E6 cells. In kind it is cell-based.
For series [6] the following is noted: blood of patients in both clinical studies; cited from earlier work.
The subject of series [7] is hospitalized COVID-19 patients. Conditions: 1620 patients; total median dose of 136 mg, oral or IV once daily, 6 days; cited from earlier work.
In series [8] the test system is non-hospitalized patients. Conditions: 10 non-hospitalized patients; oral 240 mg per day for a median of 11 days; cited from earlier work.

In “in vitro”, `CCC(CC)COC(=O)[C@H](C)N[P@](=O)(OC[C@H]1O[C@@](C#N)(c2ccc3c(N)ncnn23)[C@H](O)[C@@H]1O)Oc1ccccc1` [Remdesivir, remdesivir] returned a CC50 of 14.6 µM. In addition, the “effect on viral RNA copies (qRT-PCR, E gene)” value in the series on SARS-CoV-2 [1] and in the series with SARS-CoV-2 [5] was “dose-dependent” each time. Further, the “antiviral effect on virus yield (plaque formation)” value in the series on SARS-CoV-2 [2] is “dose-dependent antiviral effect”. Besides, the IC50 – broadly, the concentration at which inhibition is half-maximal – was 0.43 µM with SARS-CoV-2 [3] (Severe acute respiratory syndrome coronavirus 2, immunofluorescence, 72 h post infection, MOI 0.1, read-out: IC50, inhibition of SARS-CoV-2 replication); 3.3 µM in the series on SARS-CoV-2 [4] (Severe acute respiratory syndrome coronavirus 2, Vero C1008, 72 h); 3.37 µM with SARS-CoV-2 [4]. The “cytotoxicity (in words)” value in the series with human lung A549 cells and in the series with Vero E6 cells was “dose-dependent cytotoxicity at higher concentrations” throughout.
Turning to `NC(N)=Nc1nc(CSCCC(N)=NS(N)(=O)=O)cs1` [Famotidine], the “effect on viral RNA copies (qRT-PCR, E gene)” value in the series on SARS-CoV-2 [1] and in the series on SARS-CoV-2 [5] was “no effect” throughout. The peak plasma concentrations in [6] is 0.5 to 2 µM. Besides, in the series on SARS-CoV-2 [2], the “antiviral effect on virus yield (plaque formation)” value was “no effect on limiting virus plaque formation”. The “inhibition of SARS-CoV-2 replication (in words)” value in the series with SARS-CoV-2 [3] (0.32–200 µM, 72 h) was “no measurable effect”; with SARS-CoV-2 [4] (concentrations of up to 200 μM), “did not produce any measurable inhibition”. Further, in series [7], the “risk of death or intubation” value was “reduced risk of death or intubation”. For the same molecule, the “patient-reported symptoms such as shortness of breath and cough” value in [8] is listed as “patient-reported improvements in symptoms”.

The values are drawn from article PMC7940615 (Scientific Reports, 2021).
